The results in this text go back to patent US5846823A, “Expression of human D4 dopamine receptors in stable cell lines” (Allelix Biopharmaceuticals, priority 1996, dated 1998).

In the experiment the target is T1, human D4 receptor (Homo sapiens, UniProt P21917, DEL265-296).
T1 construct: expressed in transfected cells
T1 sequence (P21917 with tags, fused parts or gaps DEL265-296): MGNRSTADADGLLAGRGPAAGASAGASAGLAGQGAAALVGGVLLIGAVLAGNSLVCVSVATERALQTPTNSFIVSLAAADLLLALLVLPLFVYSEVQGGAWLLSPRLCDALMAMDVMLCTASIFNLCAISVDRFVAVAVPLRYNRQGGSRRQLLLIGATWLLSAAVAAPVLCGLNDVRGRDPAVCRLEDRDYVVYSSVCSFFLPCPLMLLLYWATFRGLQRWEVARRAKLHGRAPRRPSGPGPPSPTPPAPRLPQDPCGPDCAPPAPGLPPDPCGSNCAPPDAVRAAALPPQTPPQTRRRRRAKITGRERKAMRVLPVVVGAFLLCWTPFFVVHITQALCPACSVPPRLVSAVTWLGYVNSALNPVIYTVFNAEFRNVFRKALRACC
In words: [3H]Spiperone ligand binding assay (Scatchard analysis) on membranes of stable D4 cell line. The settings on record: stably expressed human D4 receptor, Scatchard analysis (FIG. 4).

Experimental: Cell membranes were prepared from 150 mM tissue culture dishes by suspending the cells in assay buffer [50 mM Tris-HCl, pH 7.4 containing 5 mM EDTA, 1.5 mM CaCl2, 5 mM MgCl2, 5 mM KCl, 120 NaCl]. The cells were homogenized using a Teflon pestle. Unbroken cells and nuclei were pelleted at 39,000×g for 15 minutes and the resulting pellet was resuspended in assay buffer at a concentration of 150-250 μg protein/ml.
Assays were terminated by washing 3×4 ml with cold 50 mM Tris-HCl, pH 7.4, followed by rapid filtration through a cell harvester and filters were monitored for tritium using the L56000SC (Beckman) counter. Binding data was analyzed using the GRAFIT software package.

In the case of `O=C(CCCN1CCC2(CC1)C(=O)NCN2c1ccccc1)c1ccc(F)cc1` [[^3 H]-labelled spiperone, spiperone], the “maximum spiperone-binding of the D4 receptor” value was 4,344 fmol/mg protein.
